Laboratory results: patent US20250281497A1, “FUSED AMINO PYRIMIDINE COMPOUNDS FOR TREATMENT OF SEIZURE DISORDERS” (Ovid Therapeutics Inc., priority 2024, published 2025)

Assays:
KCC2-S940A = target: T1, KCC2-S940A (Homo sapiens, UniProt Q9H2X9, S963A); assay: Tl+ flux assay, KCC2-S940A construct; type: cell-based; conditions: HEK-293
T1 construct: expressed in transfected cells; host or cells: HEK-293
T1 sequence (Q9H2X9 1-1116 isoform Q9H2X9-2 S940A): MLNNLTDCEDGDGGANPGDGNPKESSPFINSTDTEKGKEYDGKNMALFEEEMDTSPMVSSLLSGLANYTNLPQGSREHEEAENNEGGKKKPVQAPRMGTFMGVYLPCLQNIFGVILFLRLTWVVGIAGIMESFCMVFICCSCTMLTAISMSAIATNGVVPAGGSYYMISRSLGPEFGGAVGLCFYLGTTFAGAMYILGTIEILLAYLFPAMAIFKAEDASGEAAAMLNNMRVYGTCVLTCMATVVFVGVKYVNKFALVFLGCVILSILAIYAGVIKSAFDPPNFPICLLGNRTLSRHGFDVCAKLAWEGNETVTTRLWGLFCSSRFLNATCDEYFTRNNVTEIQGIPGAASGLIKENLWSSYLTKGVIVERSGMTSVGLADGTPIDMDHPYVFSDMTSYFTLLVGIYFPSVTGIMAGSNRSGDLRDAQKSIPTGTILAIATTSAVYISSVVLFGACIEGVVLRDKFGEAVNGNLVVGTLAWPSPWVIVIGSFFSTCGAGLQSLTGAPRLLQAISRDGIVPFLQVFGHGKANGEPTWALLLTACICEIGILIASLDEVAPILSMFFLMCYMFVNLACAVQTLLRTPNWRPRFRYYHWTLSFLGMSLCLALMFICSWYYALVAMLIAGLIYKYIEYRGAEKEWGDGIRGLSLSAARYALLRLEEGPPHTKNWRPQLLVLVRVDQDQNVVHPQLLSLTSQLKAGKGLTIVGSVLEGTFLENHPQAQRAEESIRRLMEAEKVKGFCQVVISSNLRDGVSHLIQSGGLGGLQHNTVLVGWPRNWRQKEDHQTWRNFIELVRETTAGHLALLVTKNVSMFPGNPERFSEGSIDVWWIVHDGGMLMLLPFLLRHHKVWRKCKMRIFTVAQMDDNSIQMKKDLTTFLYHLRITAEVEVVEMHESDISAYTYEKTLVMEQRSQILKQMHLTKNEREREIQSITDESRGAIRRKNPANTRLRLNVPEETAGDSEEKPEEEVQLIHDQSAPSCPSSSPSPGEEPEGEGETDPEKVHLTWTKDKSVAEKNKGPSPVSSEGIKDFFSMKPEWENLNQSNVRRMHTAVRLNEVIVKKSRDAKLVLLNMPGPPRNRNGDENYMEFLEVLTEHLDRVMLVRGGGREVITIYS
Procedure: FLIPR TI Flux assay. HEK-293 cells were washed with HBSS, and then incubated with loading buffer containing TI sensitive fluorescent dye (https://www.moleculardevices.com), 20 μM bumetanide 20 μM ouabain and 2.5 mM probenecid for 1 h at room temperature (RT) under control conditions or with drugs in the dark using a FlexStation 3 microplate reader (Molecular Devices) and imaged […] for 30 min. Stimulus buffer was added containing 5 mM K^+/0.5 mM Tl^+ and cells were imaged every 1.5 over a 190 second time course The initial rate Tl^+ uptake (Relative Fluorescence Units (RFU) per second) was determined following addition of the stimulus buffer as outlined previously (Conway et at, 2017, supra) (Lee et at, 2022, supra).
Several studies have shown that the activity and plasma membrane accumulation of KCC2 is potentiated via phosphorylation of S940, a process mediated by the activity of protein kinase C and protein phosphatase 1 (Lee et al., 2011, supra; Lee et al., J Biol Chem 282, 29777-29784 (2007); Moore et al., Proc. Natl. Acad. Sci. U.S.A. 115, 10166-10171 (2018); Moore et al., Trends Neurosci. 40, 555-571 (2017); Silayeva et al., Proc. Natl. Acad. Sci. U.S.A. 112, 3523-3528 (2015)). […] Compared to KCC2, effects on KCC3, KCC4, and NKCC1 were only seen at concentrations more than 35-fold that of KCC2 (>100 μM) (FIG. 1G).

KA induced SE = assay: Kainic acid (KA) induced SE, EEG recording, pretreatment; type: in vivo, mice
From the text: This model was chosen due to the similarities with patients undergoing SE, as KA-induced seizures become refractory to benzodiazepines (BDZs) within minutes (Betjemann and Lowenstein, Lancet Neurol 14, 615-624 (2015); Crawshaw and Cock, (2020a) [Seizure: Eur. J. Epilep. 75 (2020) 145-152] Seizure 80, 282; Lee et at, 2022, supra; Reddy and Kuruba, Int J Mol Sci 14, 18284-18318 (2013)).
EEG recordings and analysis. WT C57Bl/6J adult male mice (12 weeks) were anesthetized with isofluorane and implanted with EEG/EMG electrodes and allowed to recover for 7 days prior to experimentation. […] 2h following KA administration mice were injected with a saturating concentration of diazepam (DZ) 10 mg/kg (IP) and recordings were extended for a further 60 min. […] LabChart 8 software was used for data analysis. Epileptiform activity was identified by changes in the amplitude of electrographic activity characterized by consistent changes in the power of the Fast Fourier transform (FFT) of the EEG and abnormal activity characterized by periods of rhythmic spiking lasting longer than 30s (Moore et al., 2017, supra; Silayeva et al., 2015, supra; Sivakumaran et al., J. Neurosci. 35, 8291-8296 (2015)).
To provide quantitative insights on the effects of KA, raw EEG recordings were subject to Fast-Fourier transformation (8K FFT size, Hann (cosine-bell), 87.50% window overlap) for frequencies between 0-100 Hz 2h after KA injection (Lee et at, 2022, supra).
30 or 60 min later mice were injected with KA (20 mg/kg) and 2h later with DZ as detailed above.

SMILES: C[C@@H]1CN(c2nc3c(c(Nc4ccc(C5CCCCC5)cc4)n2)COC3)CCO1 [Compound A, (R)—N-(4-cyclohexylphenyl)-2-(2-methylmorpholino)-5,7-dihydrofuro[3,4-d]pyrimidin-4-amine]
- activity of KCC2-S940A construct (KCC2-S940A): increased the activity
- seizure parameters after injection directly into the hippocampus (KA induced SE; 10 μM or 20 μM, 30 or 60 min before KA 20 mg/kg, relative to vehicle): increased the latency to the 1st seizure, to SE, and reduced the percentage of time in epileptiform activity
- latency to the first seizure (KA induced SE; 50 mg/kg SC 2h before 20 mg/kg KA IP, vehicle=10.2±2.5): 14.4 ± 2.9 min
- latency to SE (KA induced SE; 50 mg/kg SC 2h before KA, vehicle=38.3±3.4): 54.5 ± 6.9 min
- time spent in epileptiform activity (KA induced SE; 50 mg/kg SC 2h before KA, vehicle=85±5.4): 62.5±8.4%
- total EEG power post DZ (KA induced SE; mice pretreated with Compound A, then DZ 10 mg/kg IP 2h after KA): 2.7±3.2×10^−7 μV^2
- total EEG power 2h after KA (pre DZ) (KA induced SE; pretreated with Compound A, vehicle 4.2±2.4×10^−6): 6.9±3.2×10^−7 μV^2
- development of refractory status epilepticus (RSE) (KA induced SE; pretreatment, 4h later): prevented the development of refractory status epilepticus (RSE)
